Experimental data from patent US12195468B2, “TLR7 agonist for treating colorectal cancer and pharmaceutical combination thereof” (CHIA TAI TIANQING PHARMACEUTICAL GROUP CO., LTD., priority 2018, dated 2025).

System: MC-38 colon cancer
Test: Anti-tumor experiment in MC-38 mouse model (subcutaneous xenograft tumor of MC-38 colon cancer in mice)
Type: in vivo
Conditions: for TV (mm^3) on day 0 Mean ± SD: day 0 (baseline at grouping); for TV (mm^3) on day 0 Mean ± SD / TV (mm^3) on day 12 Mean ± SD / TV (mm^3) on day 18 Mean ± SD: female C57BL/6 mice; for TV (mm^3) on day 0 Mean ± SD / TV (mm^3) on day 12 Mean ± SD / TV (mm^3) on day 18 Mean ± SD / TGI (%): i.g., anlotinib 1 mg/kg qd, TLR7 agonist 20 mg/kg tiw, 2 w; for TGI (%): tumor growth inhibition from tumor weight vs control group at end of experiment
Experimental: In Example 1, the TLR7 agonist is selected from
[drawing 58] and anlotinib is selected fromanlotinib dihydrochloride.
The MC-38 is a colon cancer cell of mouse from Jiangsu Cyto Biotechnology Co., Ltd.
Subcutaneously grafted tumor cells of MC-38 colon cancer (concentration: 2×10^6/mL×0.2 mL/mouse) were inoculated into female C57BL/6 mice at the right side armpit (the site to be inoculated was shaved before inoculating) in a sterile environment, and passaged using a block insertion method. The C57BL/6 mice were 16-18 g in weight, and the breeding environment was SPF level. The diameter of the C57BL/6 xenograft tumor was measured using a vernier caliper, and the mice were randomized into 4 groups when the tumors grew to 100-300 mm^3 (12 mice for control group and 6 mice each for other groups): • i. Control group (blank control); • ii. Monotherapy group: anlotinib, with normal saline as vehicle; • iii. Monotherapy group: TLR7 agonist, with ethanol+tween 80+normal saline (v:v:v=5:5:90) as vehicle; • iv.
The administration method of the combination therapy group is consistent with that of the monotherapy group.
Weights and diameter of the tumor were measured every three days, and the behavior of mice was observed daily. After the experiment was completed, the tumors were removed, weighed and photographed.
The tumor volume and the tumor growth inhibition were calculated using the following formulas: Tumor volume (TV)=(L×W^2)/2.
The TGI (%), as a value of efficacy, was substituted into the Jin zhengjun's formula q=Eab/(Ea+Eb−Ea×Eb), where Ea and Eb represent the efficacy of medicaments used alone, and Eab represents the efficacy of combined use.

| Structure (SMILES) | TV (mm^3) on day 0 Mean ± SD [mm^3] | TV (mm^3) on day 12 Mean ± SD [mm^3] | TV (mm^3) on day 18 Mean ± SD [mm^3] | effect on growth of MC-38 tumor (in words) (summary of Table 2) | TGI (%) |
| --- | --- | --- | --- | --- | --- |
| CCCCOc1nc(N)c2[nH]cc(Cc3ccc(CN4CCCC4)cc3)c2n1 [TLR7 agonist] | 143.93 ± 47.74 | 427.88 ± 161.31 | 747.63 ± 347.13 | can inhibit the growth of MC-38 tumor | 39 |
| COc1cc2c(Oc3ccc4[nH]c(C)cc4c3F)ccnc2cc1OCC1(N)CC1 [anlotinib, 1-[[[4-(4-fluoro-2-methyl-1H-indol-5-yl)oxy-6-methoxyquinolin-7-yl]oxy]methyl]cyclopropylamine, reference compound] | 143.28 ± 45.46 | 427.30 ± 135.63 | 900.32 ± 346.06 |  | 33 |
